Results published in patent publication US20240317791A1 (priority 2021, published 2024).
≈ marks a conversion by molar mass, not a printed value. Like-named read-outs stand apart in the source and are kept apart here.

What was measured:
Candida auris = test: MIC determination against clinical isolates of Candida auris (CLSI M27, 4th edition); assay type: cell-based; conditions: Candidozyma auris, read-out: MIC values
Text: (§1) MIC: Minimum Inhibitory Concentration (MIC) is defined as the lowest concentration of an antimicrobial ingredient that is bacteriostatic.
(§2) Testing has been performed in triplicates for each isolate.

Mucor circinelloides = test: MIC determination against ATCC and clinical isolates of the order Mucorales (CLSI M27, 4th edition); assay type: cell-based
Text: as §1, §2

Rhizopus microsporus = test: MIC determination against clinical isolates of the order Mucorales (CLSI M27, 4th edition); assay type: cell-based
Text: as §1, §2

Rhizopus oryzae = test: as above; assay type: cell-based; conditions: Rhizopus arrhizus, strain 2086, clinical strain
Text: as §1, §2

Candida albicans = conditions: cited from earlier work
Aspergillus spp. = conditions: 13 strains of Aspergillus spp.; cited from earlier work
Penicillium spp. = conditions: 5 strains of Penicillium spp.; cited from earlier work
Sporothrix schenkii = conditions: 1 strain of Sporothrix schenkii; cited from earlier work
Mucor sp. = conditions: 4 strains of Mucor sp.; cited from earlier work
Paecilomyces variotii = conditions: 2 strains Paecilomyces variotii; cited from earlier work
Candida sp. = conditions: cited from earlier work
[1] = rats, cited from earlier work
rat erythrocytes = conditions: cited from earlier work
[2] = single intravenous administration, amcipatricin diascorbate 1.25 mg/kg, amphotericin B 1 mg/kg

SMILES: CNc1ccc(C(=O)CC(O)CC[C@H](C)C2OC(=O)C[C@H](O)CC(=O)C[C@H](O)C[C@H](O)C[C@H](O)C[C@H](O)C[C@]3(O)C[C@H](O)[C@@H](C(=O)NCCN(C)C)C(C[C@@H](OC4OC(C)C(O)C(NC(=O)CN(C)C)C4O)/C=C/C=C/C=C/C=C\C=C/C=C/C=C/[C@@H]2C)O3)cc1 (stereo partly drawn) [Amcipatricin diascorbate, Candicidin D, 18-decarboxy-40-demethyl-3,7-dideoxo-N3′-[(dimethylamino)acetyl]-18-[[[2-(dimethylamino)ethyl]-amino]carbonyl]-3,7-dihydroxy-N47-methyl-5-oxo-, cyclic 15,19-hemiacetal, compound with L-ascorbic acid (1:2)]
- MIC (Candida auris; strain I.2 (No 2), clade I/India): 2 µg/mL (≈ 1.56 µM)
- MIC (Candida auris; strain I.3 (No 3), clade I/India): 2 µg/mL (≈ 1.56 µM)
- MIC (Candida auris; strain I.4 (No 4), clade I/India): 2 µg/mL (≈ 1.56 µM)
- MIC (Candida auris; strain II.1 (No 5), clade II/Japan): 2 µg/mL (≈ 1.56 µM)
- MIC (Candida auris; strain II.2 (No 1), clade II/India): 2 µg/mL (≈ 1.56 µM)
- MIC (Candida auris; strain III.7 (No 12), clade III/Switzerland): 1 µg/mL (≈ 0.78 µM)
- MIC (Candida auris; strain III.8 (No 13), clade III/Israel): 1 µg/mL (≈ 0.78 µM)
- MIC (Candida auris; strain III.9 (No 14), clade III/Israel): 1 µg/mL (≈ 0.78 µM)
- MIC (Candida auris; strain IV.1 (No 15), clade IV/Colombia): 2 µg/mL (≈ 1.56 µM)
- MIC (Candida auris; strain IV.10 (No 7), clade IV/Israel): 2 µg/mL (≈ 1.56 µM)
- MIC (Candida auris; strain IV.11 (No 8), clade IV/Israel): 1 µg/mL (≈ 0.78 µM)
- MIC (Candida auris; strain IV.12 (No 9), clade IV/Israel): 1 µg/mL (≈ 0.78 µM)
- MIC (Candida auris; strain IV.13 (No 10), clade IV/Israel): 2 µg/mL (≈ 1.56 µM)
- MIC (Candida auris; strain IV.14 (No 11), clade IV/Israel): 2 µg/mL (≈ 1.56 µM)
- MIC (Candida auris; strain IV.2 (No 16), clade IV/Colombia): 2 µg/mL (≈ 1.56 µM)
- MIC (Candida auris; strain IV.3 (No 17), clade IV/Colombia): 2 µg/mL (≈ 1.56 µM)
- MIC (Candida auris; strain IV.4 (No 18), clade IV/Colombia): 2 µg/mL (≈ 1.56 µM)
- MIC (Candida auris; strain IV.5 (No 19), clade IV/Colombia): 2 µg/mL (≈ 1.56 µM)
- MIC (Candida auris; strain IV.6 (No 20), clade IV/Colombia): 2 µg/mL (≈ 1.56 µM)
- MIC (Candida auris; strain IV.7 (No 21), clade IV/Colombia): 2 µg/mL (≈ 1.56 µM)
- MIC (Candida auris; strain IV.8 (No 22), clade IV/Colombia): 2 µg/mL (≈ 1.56 µM)
- MIC (Candida auris; strain IV.9 (No 6), clade IV/Israel): 2 µg/mL (≈ 1.56 µM)
- MIC (Mucor circinelloides; ATCC24905, strain ATCC 24905, ATCC strain): 4 µg/mL (≈ 3.12 µM)
- MIC (Mucor circinelloides; strain 2109, clinical strain): 4 µg/mL (≈ 3.12 µM)
- MIC (Mucor circinelloides; strain 2707, clinical strain): 4 µg/mL (≈ 3.12 µM)
- MIC (Mucor circinelloides; strain 4280, clinical strain): 4 µg/mL (≈ 3.12 µM)
- MIC (Rhizopus microsporus; strain 3315, clinical strain): 2 µg/mL (≈ 1.56 µM)
- MIC (Rhizopus microsporus; strain 3435, clinical strain): 4 µg/mL (≈ 3.12 µM)
- MIC (Rhizopus oryzae): 4 µg/mL (≈ 3.12 µM)
- fungicidal minimum inhibitory concentration against Candida albicans (Candida albicans): 0.0075 µg/mL
- geometric means of the minimum fungicidal concentrations (Aspergillus spp.): 12.53 µg/mL
- geometric means of the minimum fungicidal concentrations (Penicillium spp.): about 12 μg/mL
- MFC (Sporothrix schenkii): 19.2 µg/mL (≈ 15 µM)
- fungicidal activity compared to amphotericin B (Mucor sp.): most fungicidal
- fungicidal activity compared to amphotericin B (Paecilomyces variotii): most fungicidal
- drug concentrations inhibiting conversion from yeast to mycelial form (Candida sp.): 0.25 to 0.62 mg/L
- AUC(0-00) ([1]; multiple administration 1.25 mg/kg/day for 7 days, intravenous, seventh day, serum): 72100 ng·h/mL
- serum elimination half-life ([1]; multiple administration 1.25 mg/kg/day for 7 days, intravenous, seventh day): 41.4 h
- area under the curve to infinity (AUC(0-∞)) [1, 2]: 35520 ng·h/mL
- elimination half-lives [1, 2]: 22.15 h
- tissue distribution ([1]; single intravenous administration): higher uptake by the kidneys, followed by the liver, spleen and lungs
- haemolytic minimum concentration against rat erythrocytes (rat erythrocytes): 18 mg/mL
